According to patent US20090196950A1, “METHODS OF FEEDING PIGS AND PRODUCTS COMPRISING BENEFICIAL FATTY ACIDS” (Monsanto Company, priority 2008, published 2009):

Experiment: 35 day feeding study in pigs: fatty acid composition of pork tissues (belly, loin, ham, skin) by GC-FID of FAMEs
Type: in vivo
Protocol: A 35 day study was conducted to determine whether pigs fed a diet containing SDA could produce meat with improved fatty acid profiles including increased levels of SDA, EPA, and DHA.
A control diet (Treatment 1) formulated to meet or exceed NRC (1998) nutrient requirements for pigs in the late finishing phase (approximately 80-120 kg BW containing 1.14% corn oil and no added SDA ethyl ester (70% w/w SDA) were fed ad libitum during an acclimation period of at least 1 week duration. Ethoxyquin was included in all diets as an antioxidant at a concentration of 150 parts per million (0.015%, as-fed basis), the maximum level allowed by FDA regulation in animal feeds. The same control diet was fed ad libitum to the control pigs (pen receiving Treatment 1) throughout a 35-day test period. Four test diets (Treatment 2, 3, 4, and 5) with SDA ethyl ester substituted for corn oil to provide 0.2, 0.4, 0.6 and 0.8% (w/w SDA active ingredient, as-is basis) were fed ad libitum to one pen of four pigs throughout the 35-day test period Table 4). All diets were fed in meal form.
All pigs were individually weighed at initiation of the acclimation and test period, and immediately prior to slaughter. Feed consumption per pen was recorded. […] Live weights prior to slaughter and hot carcass weights were recorded. […] Prior to removing the sample for sensory and fatty and proximate analysis from the belly the firmness of the belly was evaluated using a flop test. At 24 hr postmortem fat thickness (10th rib), loin eye area (10th rib), visual color, firmness and marbling, Minolta color (L*a*b*), pH, and drip loss were measured. […]
In order to evaluate the fatty acid composition of pig tissues (loin, ham, skin, and belly), samples were stored at −80° C. until evaluation. […] Resultant fatty acid methyl esters (FAME's) were separated by capillary gas chromatography (GC) and detected by flame ionization detector (FID). […] Quantification was achieved by using an internal standard (c15:0 triacylglyceride (TAG) for pig tissue samples and c17:0 TAG for diet samples). […]

## CC/C=C\C/C=C\C/C=C\C/C=C\CCCCC(=O)O [SDA, stearidonic acid]
0.2-0.8% SDA in feed, 35 days
  enrichment of SDA, ETA, and EPA in belly, loin, ham, and skin tissues: enriched in belly, loin, ham, and skin tissues in a dose dependent manner
SDA supplementation, 35 days
  levels of SDA, ETA, EPA, DPA in belly, loin, ham and skin tissues and DHA in ham tissue as compared to the control: higher levels
Pigs fed SDA for the last 35 days prior to slaughter
  omega 3 fatty acid enrichment in belly, loin, ham and skin tissues as compared to the control: significant increase
